“Also recorded” adds a separate entry of the source. Where a SMILES comes first, the peptide text is derived from it.
Columns and labels:
[1] = cited from earlier work; for Sweetness power: standard sweetening power, saccharose = 1; for Relative sweetness: Table 2, relative to sucrose; for Sweetness potency, times higher than sucrose: related art
[2] = Table 2; cited from earlier work
[3] = Table 2 and related-art text; cited from earlier work
[4] = Solubility in water; assay type: physicochemical; details: high purity Rebaudioside D of the invention; increases with temperature
Text: Solubility in water is around 0.2% which is increasing with increase in temperature. It precipitates again upon cooling the solution. Highly soluble during chromatographic separation stage and before crystallizing.

[5] = Solubility in organic solvents; assay type: physicochemical
Text: Soluble in diluted solutions of methanol, ethanol, n-propanol, and isopropanol.
Insoluble in acetone, benzene, chloroform, and ether.

[6] = Heat and pH stability; assay type: physicochemical
[7] = Sweetness power / relative sweetness compared with sucrose; details: high purity Rebaudioside D of the invention, compared to 10% sucrose solution
[8] = Quality of taste (sensory attributes)
Text: Rebaudioside D is isolated and extracted, along with other steviol glycosides, from the Stevia rebaudiana Bertoni plant (“Stevia”), which is commercially cultivated in Japan, Taiwan, Malaysia, South Korea, China, Israel, India, Brazil, Australia, and Paraguay.

| Compound | Sweetness power [1] | Solubility in water, % [2] [%] | Relative sweetness [1] | Quality of taste [3] | further results |
| --- | --- | --- | --- | --- | --- |
| CC1=CC(=O)NS(=O)(=O)O1 [Acesulfame-K] | 200 |  |  |  |  |
| C[C@@H](NC(=O)[C@@H](N)CC(=O)O)C(=O)NC1C(C)(C)SC1(C)C [Alitame] | 2000 |  |  |  |  |
| COC(=O)[C@H](Cc1ccccc1)NC(=O)[C@@H](N)CC(=O)O [Aspartame] (H-Asp-Phe-OMe) | 200 |  |  |  |  |
| C=C1C[C@@]23CC[C@H]4[C@@](C)(CCC[C@@]4(C)C(=O)O[C@@H]4O[C@H](CO)[C@@H](O)[C@H](O)[C@H]4O)[C@@H]2CC[C@]1(O[C@@H]1O[C@H](CO)[C@@H](O)[C@H](O)[C@H]1O[C@@H]1O[C@@H](C)[C@H](O)[C@@H](O)[C@H]1O)C3 [Dulcoside A] |  | 0.58 | 30 | Very bitter | Sweetness potency, times higher than sucrose [1]: around 30 times |
| CC1(C)[C@@H](O[C@H]2O[C@H](C(=O)O)[C@@H](O)[C@H](O)[C@H]2O[C@@H]2O[C@H](C(=O)O)[C@@H](O)[C@H](O)[C@H]2O)CC[C@]2(C)[C@H]3C(=O)C=C4[C@@H]5C[C@@](C)(C(=O)O)CC[C@]5(C)CC[C@@]4(C)[C@]3(C)CC[C@@H]12 [Glycyrrhizin] | 50 |  |  |  |  |
| COc1ccc(CCC(=O)c2c(O)cc(O[C@@H]3O[C@H](CO)[C@@H](O)[C@H](O)[C@H]3O[C@@H]3O[C@@H](C)[C@H](O)[C@@H](O)[C@H]3O)cc2O)cc1O [NHDC, neohesperidin dihydrochalcone] | 1000 |  |  |  |  |
| C=C1C[C@@]23CC[C@H]4[C@@](C)(CCC[C@@]4(C)C(=O)O[C@@H]4O[C@H](CO)[C@@H](O)[C@H](O)[C@H]4O)[C@@H]2CC[C@]1(O[C@@H]1O[C@H](CO)[C@@H](O)[C@H](O[C@@H]2O[C@H](CO)[C@@H](O)[C@H](O)[C@H]2O)[C@H]1O[C@@H]1O[C@H](CO)[C@@H](O)[C@H](O)[C@H]1O)C3 [Rebaudioside A] | 450 | 0.80 | 200-400 | most favorable sensory attributes of the four major steviol glycosides; also recorded: Less Bitter |  |
| C=C1C[C@@]23CC[C@H]4[C@@](C)(CCC[C@@]4(C)C(=O)O[C@@H]4O[C@H](CO)[C@@H](O)[C@H](O)[C@H]4O[C@@H]4O[C@H](CO)[C@@H](O)[C@H](O)[C@H]4O)[C@@H]2CC[C@]1(O[C@@H]1O[C@H](CO)[C@@H](O)[C@H](O[C@@H]2O[C@H](CO)[C@@H](O)[C@H](O)[C@H]2O)[C@H]1O[C@@H]1O[C@H](CO)[C@@H](O)[C@H](O)[C@H]1O)C3 [Rebaudioside D] |  | 1.00 | 220 | Like sucrose | Solubility in water [4]: around 0.2%; Solubility in non-alcohol organic solvents ([5]; acetone, benzene, chloroform, and ether): Insoluble; Solubility in diluted alcohols ([5]; diluted solutions of methanol, ethanol, n-propanol, and isopropanol): Soluble; Heat and pH stability [6]: heat and pH-stable; times sweeter than sugar [7]: 180-200 times; Bitterness and aftertaste / sensory properties ([8]; amongst the sweet diterpenoid glycosides of Stevia): the least bitter, and with the least persistent aftertaste; Bitterness and aftertaste / sensory properties ([8]; amongst the sweet diterpenoid glycosides of Stevia; listed as Rebaudioside 1)): excellent sensory properties |
| C=C1C[C@@]23CC[C@H]4[C@@](C)(CCC[C@@]4(C)C(=O)O[C@@H]4O[C@H](CO)[C@@H](O)[C@H](O)[C@H]4O[C@@H]4O[C@H](CO)[C@@H](O)[C@H](O)[C@H]4O)[C@@H]2CC[C@]1(O[C@@H]1O[C@H](CO)[C@@H](O)[C@H](O)[C@H]1O[C@@H]1O[C@H](CO)[C@@H](O)[C@H](O)[C@H]1O)C3 [Rebaudioside E] |  | 1.70 | 170 | Like sucrose |  |
| C=C1C[C@@]23CC[C@H]4[C@@](C)(CCC[C@@]4(C)C(=O)O[C@@H]4O[C@H](CO)[C@@H](O)[C@H](O)[C@H]4O)[C@@H]2CC[C@]1(O[C@@H]1O[C@H](CO)[C@@H](O)[C@H](O)[C@H]1O)C3 [Rubusoside] |  |  | 110 | Very bitter |  |
| O=C1NS(=O)(=O)c2ccccc21 [Saccharine] | 300 |  |  |  |  |
| OC[C@H]1O[C@@](CO)(O[C@H]2O[C@H](CO)[C@@H](O)[C@H](O)[C@H]2O)[C@@H](O)[C@@H]1O [Saccharose] | 1 |  |  |  |  |
| C=C1C[C@@]23CC[C@H]4[C@@](C)(CCC[C@@]4(C)C(=O)O)[C@@H]2CC[C@]1(O)C3 [Steviol] |  |  |  | Very bitter |  |
| C=C1C[C@@]23CC[C@H]4[C@@](C)(CCC[C@@]4(C)C(=O)O)[C@@H]2CC[C@]1(O[C@@H]1O[C@H](CO)[C@@H](O)[C@H](O)[C@H]1O[C@@H]1O[C@H](CO)[C@@H](O)[C@H](O)[C@H]1O)C3 [Steviolbioside] |  | 0.03 | 90 | Unpleasant |  |
| C=C1C[C@@]23CC[C@H]4[C@@](C)(CCC[C@@]4(C)C(=O)O[C@@H]4O[C@H](CO)[C@@H](O)[C@H](O)[C@H]4O)[C@@H]2CC[C@]1(O[C@@H]1O[C@H](CO)[C@@H](O)[C@H](O)[C@H]1O[C@@H]1O[C@H](CO)[C@@H](O)[C@H](O)[C@H]1O)C3 [Stevioside] | 200 | 0.13 | 210 | Bitter | Sweetness potency, times higher than sucrose [1]: around 210 times |
| OC[C@H]1O[C@H](O[C@]2(CCl)O[C@H](CCl)[C@@H](O)[C@@H]2O)[C@H](O)[C@@H](O)[C@H]1Cl [Sucralose] | 600 |  |  |  |  |
| Rebaudioside B |  | 0.10 | 150 | Bitter |  |
| Rebaudioside C |  | 0.21 | 30 | Bitter | Sweetness potency, times higher than sucrose [1]: around 30 times |
| Thaumatin | 3000 |  |  |  |  |
